Data on 24 compounds can be found in PMC7281298, “Exploring Kinase Inhibition Properties of 9H-pyrimido[5,4-b]- and [4,5-b]indol-4-amine Derivatives” (Pharmaceuticals, 2020).

Assay [1] addresses GSK-3α/β. The assay can be described thus: Kinase inhibition assay, GSK-3α/β. The class given is biochemical. To be noted: for IC50: average of triplicate determination (<10% variation), read-out: Kinase inhibitory potency (IC50) GSK-3α/β. Here is the method: (§1) The inhibitory potency of the synthesized pyrimido[4,5-b]indol-4-amines and pyrimido[5,4-b]indol-4-amines towards CDK5/p25, CK1δ/ε, DYRK1A, and GSK-3α/β was investigated according preceding procedures.
(§2) Buffers, kinase preparations, and assays were performed as described in ref. [12, 13, 14] according methods initially published in previous works.

The target in assay [2] is CK1δ/ε. As to the kind of experiment: Kinase inhibition assay, CK1δ/ε. Format: biochemical. The conditions noted are these: for IC50: average of triplicate determination (<10% variation), read-out: Kinase inhibitory potency (IC50) CK1δ/ε. The protocol: as §1, §2
Assay [3] addresses CDK5/p25 (Homo sapiens, UniProt Q00535). The assay can be described thus: Kinase inhibition assay, CDK5/p25. The conditions noted are these: for IC50: average of triplicate determination (<10% variation), read-out: Kinase inhibitory potency (IC50) CDK5/p25. The class given is biochemical. Here is the method:
as §1, §2

For assay [4], the target named is T1, DYRK1A (Homo sapiens, UniProt Q13627). The assay can be described thus: Kinase inhibition assay, DYRK1A. The class given is biochemical. The conditions noted are these: for IC50: read-out: Kinase inhibitory potency (IC50) DYRK1A. Here is the method:
as §1, §2

The subject of assay [5] is CK1δ/ε. Also on record: method as in PMID 23237976, PMID 23124214, PMID 25549552. The conditions noted are these: already published data, cited from earlier work; for IC50: thieno[2,3-d]pyrimidin-4-amine congeners.
The target in assay [6] is T1, DYRK1A. Also on record: method as in PMID 23237976, PMID 23124214, PMID 25549552. The conditions noted are these: thieno[2,3-d]pyrimidin-4-amine congeners, already published data; cited from earlier work.
Setting [7] is: average of triplicate determination (<10% variation).

Like-named read-outs stand apart in the source and are kept apart here.

Sequence of CDK5/p25 (Q00535 whole entry, species assumed): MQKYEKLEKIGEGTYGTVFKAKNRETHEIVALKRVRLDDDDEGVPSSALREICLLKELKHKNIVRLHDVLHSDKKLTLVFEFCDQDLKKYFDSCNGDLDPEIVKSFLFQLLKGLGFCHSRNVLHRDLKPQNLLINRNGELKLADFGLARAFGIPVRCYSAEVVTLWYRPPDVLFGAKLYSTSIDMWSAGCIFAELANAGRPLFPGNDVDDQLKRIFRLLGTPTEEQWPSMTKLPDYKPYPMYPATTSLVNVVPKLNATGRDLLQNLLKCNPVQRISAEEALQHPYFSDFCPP
Sequence of CDK5/p25 (Q15078 99-307 partner limits assumed, species assumed): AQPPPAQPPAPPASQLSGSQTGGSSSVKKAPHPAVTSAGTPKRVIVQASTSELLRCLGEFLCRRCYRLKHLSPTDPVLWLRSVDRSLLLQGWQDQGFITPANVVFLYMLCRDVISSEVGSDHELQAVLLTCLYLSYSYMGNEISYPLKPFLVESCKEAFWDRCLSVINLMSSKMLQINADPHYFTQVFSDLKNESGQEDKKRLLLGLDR

With `Nc1ncnc2c1[nH]c1ccccc12` [Compound 1a, 5H-Pyrimido[5,4-b]indol-4-amine], the IC50 in assay [1] is greater than 10 µM; in assay [2] it was 2 µM; in assay [3], greater than 10 µM; in assay [4] (setting [7]), 2.2 µM.

For `Cn1c2ccccc2c2ncnc(N)c21` [Compound 1b, 5-Methyl-5H-pyrimido[5,4-b]indol-4-amine], the IC50 in assay [1] was greater than 10 µM; in assay [2], 4 µM; in assay [3], greater than 10 µM; in assay [4] (setting [7]), 5.8 µM.

For the compound `CCn1c2ccccc2c2ncnc(N)c21` [Compound 1c, 5-Ethyl-5H-pyrimido[5,4-b]indol-4-amine], the IC50 in assay [1] was greater than 10 µM; in assay [2] it was 2.8 µM; in assay [3] it was greater than 10 µM; in assay [4] (setting [7]) it was 4.1 µM.

For `Nc1ncnc2c3ccccc3n(Cc3ccccc3)c12` [Compound 1d, 5-Benzyl-5H-pyrimido[5,4-b]indol-4-amine], the IC50 was greater than 10 µM in assay [1], 0.6 µM in assay [2], greater than 10 µM in assay [3] and greater than 10 µM in assay [4] (setting [7]). Besides, the “Inhibitory activity against DYRK1A (in words)” value in assay [4] is “lack of activity”.

Turning to `Nc1ncnc2c1[nH]c1ccc([N+](=O)[O-])cc12` [Compound 2a, 8-Nitro-5H-pyrimido[5,4-b]indol-4-amine], the IC50 in assay [1] is greater than 10 µM; in assay [2], greater than 10 µM; in assay [3], greater than 10 µM; in assay [4] (setting [7]), 7.6 µM. The “Inhibitory activity against CK1δ/ε (in words)” value in assay [2] is “no inhibition”. Besides, the “Inhibitory activity against DYRK1A (in words)” value in assay [4] is reported as “low micromolar activity”.

As for `Cn1c2ccc([N+](=O)[O-])cc2c2ncnc(N)c21` [Compound 2b, 5-Methyl-8-nitro-5H-pyrimido[5,4-b]indol-4-amine], the IC50 in assay [1], in assay [2], in assay [3] and in assay [4] (setting [7]) was greater than 10 µM in each case.

On to `CCn1c2ccc([N+](=O)[O-])cc2c2ncnc(N)c21` [Compound 2c, 5-Ethyl-8-nitro-5H-pyrimido[5,4-b]indol-4-amine], for which the IC50 in assay [1], in assay [2], in assay [3] and in assay [4] (setting [7]) was greater than 10 µM throughout.

For the compound `Nc1ncnc2c3cc([N+](=O)[O-])ccc3n(Cc3ccccc3)c12` [Compound 2d, 5-Benzyl-8-nitro-5H-pyrimido[5,4-b]indol-4-amine], the IC50 in assay [1], in assay [2], in assay [3] and in assay [4] (setting [7]) was greater than 10 µM in each case.

With `Nc1ncnc2[nH]c3ccccc3c12` [Compound 3a, 9H-Pyrimido[4,5-b]indol-4-amine], the IC50 in assay [1] was greater than 10 µM; in assay [2], 0.7 µM; in assay [3], 6 µM; in assay [4] (setting [7]), 3.1 µM.

As to `Cn1c2ccccc2c2c(N)ncnc21` [Compound 3b, 9-Methyl-9H-pyrimido[4,5-b]indol-4-amine], the IC50 is greater than 10 µM in assay [1], 2.5 µM in assay [2], greater than 10 µM in assay [3] and greater than 10 µM in assay [4] (setting [7]).

`CCn1c2ccccc2c2c(N)ncnc21` [Compound 3c, 9-Ethyl-9H-pyrimido[4,5-b]indol-4-amine]: the IC50 in assay [1] was greater than 10 µM; in assay [2], 1.6 µM; in assay [3], greater than 10 µM; in assay [4] (setting [7]), 9.8 µM.

As for `Nc1ncnc2c1c1ccccc1n2Cc1ccccc1` [Compound 3d, 9-Benzyl-9H-pyrimido[4,5-b]indol-4-amine], the IC50 in assay [1] is greater than 10 µM; in assay [2] it was 2.7 µM; in assay [3], greater than 10 µM; in assay [4] (setting [7]), greater than 10 µM.

As to `Nc1ncnc2[nH]c3cc([N+](=O)[O-])ccc3c12` [Compound 4a, 7-Nitro-9H-pyrimido[4,5-b]indol-4-amine], the IC50 is greater than 10 µM in assay [1], 3.5 µM in assay [2], greater than 10 µM in assay [3] and 7.6 µM in assay [4] (setting [7]).

Regarding `Cn1c2cc([N+](=O)[O-])ccc2c2c(N)ncnc21` [Compound 4b, 9-Methyl-7-nitro-9H-pyrimido[4,5-b]indol-4-amine], the IC50 in assay [1] was greater than 10 µM; in assay [2] it was 2.8 µM; in assay [3] it was greater than 10 µM; in assay [4] (setting [7]), greater than 10 µM.

As to `CCn1c2cc([N+](=O)[O-])ccc2c2c(N)ncnc21` [Compound 4c, 9-Ethyl-7-nitro-9H-pyrimido[4,5-b]indol-4-amine], the IC50 in assay [1] is greater than 10 µM; in assay [2], 1.6 µM; in assay [3], greater than 10 µM; in assay [4] (setting [7]), 5.9 µM.

Regarding `Nc1ncnc2c1c1ccc([N+](=O)[O-])cc1n2Cc1ccccc1` [Compound 4d, 9-Benzyl-7-nitro-9H-pyrimido[4,5-b]indol-4-amine], the IC50 in assay [1], in assay [2], in assay [3] and in assay [4] (setting [7]) was greater than 10 µM throughout.

As to `COc1ccc2c(c1)[nH]c1c(C)nccc12` [Compound 11a, harmine, reference compound], in assay [1], the “Inhibitory activity against GSK3α/β (in words)” value was “definitely inactive” and the IC50 was greater than 10 µM. In addition, the IC50 in assay [2] was found to be 1.5 µM. Further, in assay [3], the “Inhibitory activity against CDK5/p25 (in words)” value was “definitely inactive”.

On to `COc1ccc2c3ccnc(C)c3n(C)c2c1` [Compound 11b, 7-Methoxy-1,9-dimethyl-β-carboline], for which, in assay [1], the “Inhibitory activity against GSK3α/β (in words)” value is “totally inactive” and the IC50 was greater than 10 µM. In assay [2], the “Inhibitory activity against CK1δ/ε (in words)” value is “totally inactive” and the IC50 was greater than 10 µM. Also, in assay [3], the “Inhibitory activity against CDK5/p25 (in words)” value is “totally inactive” and the IC50 is greater than 10 µM.

On to `CCn1c2cc(OC)ccc2c2ccnc(C)c21` [Compound 11c, 9-Ethyl-7-methoxy-1-methyl-β-carboline], for which, in assay [1], the “Inhibitory activity against GSK3α/β (in words)” value is “totally inactive” and the IC50 was greater than 10 µM. For the same compound, in assay [2], the “Inhibitory activity against CK1δ/ε (in words)” value is “totally inactive” and the IC50 is greater than 10 µM. In addition, in assay [3], the “Inhibitory activity against CDK5/p25 (in words)” value was “totally inactive” and the IC50 was greater than 10 µM. In addition, the IC50 in assay [4] is 0.037 µM.

On to `COc1ccc2c3ccnc(C)c3n(Cc3ccccc3)c2c1` [Compound 11d, 9-Benzyl-7-methoxy-1-methyl-β-carboline], for which, in assay [1], the “Inhibitory activity against GSK3α/β (in words)” value is “totally inactive” and the IC50 was greater than 10 µM. In addition, in assay [2], the “Inhibitory activity against CK1δ/ε (in words)” value is “totally inactive” and the IC50 is greater than 10 µM. Moreover, in assay [3], the “Inhibitory activity against CDK5/p25 (in words)” value is “totally inactive” and the IC50 is greater than 10 µM. For the same compound, the IC50 in assay [4] (setting [7]) is 0.059 µM.

For `Nc1ncnc2c1sc1ccccc12` [Compound 12], the values for the IC50 in assay [5] and in assay [6] were 0.79 µM and 33 µM, respectively.

On to `Nc1ncnc2c1sc1nccnc12` [Compound 13], for which, in assay [5], the “Activity against CK1 (in words)” value is “micromolar and submicromolar activity”; the IC50 was 2.4 µM. Moreover, the IC50 in assay [6] is greater than 10 µM.

`Nc1ncnc2c1sc1cccnc12` [Compound 14]: in assay [5], the “Activity against CK1 (in words)” value was “micromolar and submicromolar activity”; the IC50 was 1.8 µM. Also, the IC50 in assay [6] was 6 µM.

In the case of `Nc1ncnc2c1sc1ncccc12` [Compound 15], in assay [5], the “Activity against CK1 (in words)” value is “micromolar and submicromolar activity”; the IC50 is 0.031 µM. Also, the IC50 in assay [6] was greater than 10 µM.
